From ChEMBL document CHEMBL4052645, “Discovery of potent and efficacious pyrrolopyridazines as dual JAK1/3 inhibitors” (Bioorg Med Chem Lett, 2017)

Experiments:
[1] = molecular target: Glycogen synthase kinase-3 beta (Homo sapiens) (UniProt P49841); assay: Inhibition of wild-type human full length GSK3B (M1 to T433 residues) expressed in mammalian expression system assessed as residual activity at 50 nM by Kinomescan method relative to control
[2] = molecular target: Tyrosine-protein kinase HCK (Homo sapiens) (UniProt P08631); assay: Inhibition of wild-type human full length HCK (M22 to P526 residues) expressed in bacterial expression system assessed as residual activity at 50 nM by Kinomescan method relative to control
[3] = molecular target: Serine/threonine-protein kinase TAO2 (Homo sapiens) (UniProt Q9UL54); assay: Inhibition of wild-type human partial length TAO2 (M1 to A320 residues) expressed in mammalian expression system assessed as residual activity at 50 nM by Kinomescan method relative to control
[4] = molecular target: Ephrin type-A receptor 4 (Homo sapiens) (UniProt P54764); assay: Inhibition of wild-type human partial length EPHA4 (T601 to R897 residues) expressed in bacterial expression system assessed as residual activity at 50 nM by Kinomescan method relative to control
[5] = molecular target: Calcium/calmodulin-dependent protein kinase kinase 2 (Homo sapiens) (UniProt Q96RR4); assay: Inhibition of wild-type human partial length CAMKK2 (D65 to V471 residues) expressed in bacterial expression system assessed as residual activity at 50 nM by Kinomescan method relative to control
[6] = molecular target: Insulin-like growth factor 1 receptor (Homo sapiens) (UniProt P08069); assay: Inhibition of wild-type human partial length IGF1R (L972 to D1294 residues) expressed in bacterial expression system assessed as residual activity at 50 nM by Kinomescan method relative to control
[7] = molecular target: Mitogen-activated protein kinase kinase kinase 4 (Homo sapiens) (UniProt Q9Y6R4); assay: Inhibition of wild-type human partial length MAP3K4 ([…] residues) expressed in mammalian expression system assessed as residual activity at 50 nM by Kinomescan method relative to control
[8] = molecular target: Mitogen-activated protein kinase 15 (Homo sapiens) (UniProt Q8TD08); assay: Inhibition of wild-type human partial length ERK7 (M1 to P437 residues) expressed in bacterial expression system assessed as residual activity at 50 nM by Kinomescan method relative to control
[9] = molecular target: Serine/threonine-protein kinase/endoribonuclease IRE1 (Homo sapiens) (UniProt O75460); assay: Inhibition of wild-type human partial length IRE1 (S551 to E852 residues) expressed in mammalian expression system assessed as residual activity at 50 nM by Kinomescan method relative to control
[10] = molecular target: Serine/threonine-protein kinase Nek3 (Homo sapiens) (UniProt P51956); assay: Inhibition of wild-type human full length NEK3 (M1 to R506 residues) expressed in mammalian expression system assessed as residual activity at 50 nM by Kinomescan method relative to control
[11] = molecular target: Serine/threonine-protein kinase Sgk3 (Homo sapiens) (UniProt Q96BR1); assay: Inhibition of wild-type human partial length SGK3 (M119 to L496 residues) expressed in mammalian expression system assessed as residual activity at 50 nM by Kinomescan method relative to control
[12] = molecular target: G protein-coupled receptor kinase 4 (Homo sapiens) (UniProt P32298); assay: Inhibition of wild-type human full length GPRK4 (M1 to C578 residues) expressed in bacterial expression system assessed as residual activity at 50 nM by Kinomescan method relative to control
[13] = molecular target: Rho-associated protein kinase 2 (Homo sapiens, UniProt O75116); assay: Inhibition of human ROCK2 (M1 to T431 residues) expressed in mammalian expression system assessed as residual activity at 50 nM by KINOMEscan assay relative to control
[14] = molecular target: Non-receptor tyrosine-protein kinase TYK2 (Homo sapiens, UniProt P29597); assay: Inhibition of TYK2 (unknown origin) assessed as residual activity at 50 nM by KINOMEscan assay relative to control
[15] = molecular target: Serine/threonine-protein kinase pim-2 (Homo sapiens) (UniProt Q9P1W9); assay: Inhibition of wild-type human partial length PIM2 (M1 to E291 residues) expressed in bacterial expression system assessed as residual activity at 50 nM by Kinomescan method relative to control
[16] = molecular target: Serine/threonine-protein kinase 17A (Homo sapiens) (UniProt Q9UEE5); assay: Inhibition of wild-type human partial length DRAK1 (R32 to E363 residues) expressed in bacterial expression system assessed as residual activity at 50 nM by Kinomescan method relative to control
[17] = molecular target: Cyclin-dependent kinase 15 (Homo sapiens) (UniProt Q96Q40); assay: Inhibition of wild-type human full length PFTAIRE2 (M1 to W384 residues) expressed in bacterial expression system assessed as residual activity at 50 nM by Kinomescan method relative to control
[18] = molecular target: Cyclin-dependent kinase 8 (Homo sapiens) (UniProt P49336); assay: Inhibition of wild-type human partial length CDK8 (M1 to T360 residues) expressed in bacterial expression system assessed as residual activity at 50 nM by Kinomescan method relative to control
[19] = molecular target: Tyrosine-protein kinase JAK2 (Homo sapiens, UniProt O60674); assay: Inhibition of GST-tagged JAK2 (unknown origin) after 3 hrs by Caliper assay
[20] = molecular target: Calcium/calmodulin-dependent protein kinase type 1D (Homo sapiens) (UniProt Q8IU85); assay: Inhibition of wild-type human partial length CAMK1D (M1 to K299 residues) expressed in bacterial expression system assessed as residual activity at 50 nM by Kinomescan method relative to control
[21] = molecular target: Dual specificity mitogen-activated protein kinase kinase 3 (Homo sapiens) (UniProt P46734); assay: Inhibition of wild-type human full length MAP2K3 (M1 to S318 residues) expressed in mammalian expression system assessed as residual activity at 50 nM by Kinomescan method relative to control
[22] = molecular target: cAMP-dependent protein kinase catalytic subunit alpha (Homo sapiens) (UniProt P17612); assay: Inhibition of wild-type human partial length PKACA (G10 to F351 residues) expressed in bacterial expression system assessed as residual activity at 50 nM by Kinomescan method relative to control
[23] = molecular target: Dual specificity mitogen-activated protein kinase kinase 5 (Homo sapiens) (UniProt Q13163); assay: Inhibition of human MAP2K5 (L98 to P448 residues) expressed in mammalian expression system assessed as residual activity at 50 nM by KINOMEscan assay relative to control
[24] = molecular target: Interleukin-1 receptor-associated kinase 1 (Homo sapiens) (UniProt P51617); assay: Inhibition of wild-type human partial length IRAK1 (R194 to S712 residues) expressed in mammalian expression system assessed as residual activity at 50 nM by Kinomescan method relative to control
[25] = molecular target: Tyrosine-protein kinase BTK (Homo sapiens) (UniProt Q06187); assay: Inhibition of wild-type human full length BTK (M1 to S659 residues) expressed in mammalian expression system assessed as residual activity at 50 nM by Kinomescan method relative to control
[26] = molecular target: Angiopoietin-1 receptor (Homo sapiens) (UniProt Q02763); assay: Inhibition of wild-type human partial length TIE2 (N804 to T1112 residues) expressed in bacterial expression system assessed as residual activity at 50 nM by Kinomescan method relative to control

Sequence of Serine/threonine-protein kinase Nek3 (Homo sapiens) (P51956 whole entry, the tested form may be a part): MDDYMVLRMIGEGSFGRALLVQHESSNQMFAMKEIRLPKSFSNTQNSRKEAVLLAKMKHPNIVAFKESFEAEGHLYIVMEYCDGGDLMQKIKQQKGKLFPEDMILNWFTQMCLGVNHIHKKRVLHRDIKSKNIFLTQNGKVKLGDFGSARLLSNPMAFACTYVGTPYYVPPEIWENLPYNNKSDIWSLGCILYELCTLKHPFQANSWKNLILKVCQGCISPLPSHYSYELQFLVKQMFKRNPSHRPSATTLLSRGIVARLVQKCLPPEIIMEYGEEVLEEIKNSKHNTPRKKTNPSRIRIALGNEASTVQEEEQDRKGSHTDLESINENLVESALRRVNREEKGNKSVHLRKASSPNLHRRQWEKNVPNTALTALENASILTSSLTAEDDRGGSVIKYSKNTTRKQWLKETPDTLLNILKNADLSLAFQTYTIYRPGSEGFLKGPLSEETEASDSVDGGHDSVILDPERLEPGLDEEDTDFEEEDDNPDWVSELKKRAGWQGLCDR
Sequence of Mitogen-activated protein kinase 15 (Homo sapiens) (Q8TD08 whole entry, the tested form may be a part): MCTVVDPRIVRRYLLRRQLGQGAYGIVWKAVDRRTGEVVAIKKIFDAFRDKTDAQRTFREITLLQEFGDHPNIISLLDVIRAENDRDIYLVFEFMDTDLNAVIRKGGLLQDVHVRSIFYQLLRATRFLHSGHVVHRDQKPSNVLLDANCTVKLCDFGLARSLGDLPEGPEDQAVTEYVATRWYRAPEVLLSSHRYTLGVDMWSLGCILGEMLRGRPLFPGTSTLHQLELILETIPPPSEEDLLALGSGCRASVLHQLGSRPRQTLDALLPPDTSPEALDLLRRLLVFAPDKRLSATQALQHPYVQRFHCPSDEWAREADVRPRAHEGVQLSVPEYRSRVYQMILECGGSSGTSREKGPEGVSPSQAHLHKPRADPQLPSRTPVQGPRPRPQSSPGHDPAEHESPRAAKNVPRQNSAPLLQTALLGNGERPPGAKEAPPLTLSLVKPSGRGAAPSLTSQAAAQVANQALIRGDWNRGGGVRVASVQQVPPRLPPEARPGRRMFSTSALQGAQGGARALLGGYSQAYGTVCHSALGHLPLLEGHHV
Sequence of G protein-coupled receptor kinase 4 (Homo sapiens) (P32298 whole entry, looked up, the tested form may be a part): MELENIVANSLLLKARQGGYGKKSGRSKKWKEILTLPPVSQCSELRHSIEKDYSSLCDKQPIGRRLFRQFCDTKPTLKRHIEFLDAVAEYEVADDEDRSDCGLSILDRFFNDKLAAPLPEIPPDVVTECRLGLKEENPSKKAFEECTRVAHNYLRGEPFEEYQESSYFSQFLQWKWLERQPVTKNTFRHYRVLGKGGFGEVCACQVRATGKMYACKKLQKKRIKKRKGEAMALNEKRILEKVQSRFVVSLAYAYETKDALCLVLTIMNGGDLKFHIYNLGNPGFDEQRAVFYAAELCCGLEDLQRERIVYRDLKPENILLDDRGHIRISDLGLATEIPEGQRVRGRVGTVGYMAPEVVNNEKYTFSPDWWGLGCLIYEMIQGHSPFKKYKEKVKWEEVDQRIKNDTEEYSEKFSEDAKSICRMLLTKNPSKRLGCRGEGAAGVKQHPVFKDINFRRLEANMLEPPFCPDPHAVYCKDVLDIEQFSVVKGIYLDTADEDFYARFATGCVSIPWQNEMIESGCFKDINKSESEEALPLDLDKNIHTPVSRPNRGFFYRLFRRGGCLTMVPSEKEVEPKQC
Sequence of Non-receptor tyrosine-protein kinase TYK2 (P29597 whole entry, the tested form may be a part): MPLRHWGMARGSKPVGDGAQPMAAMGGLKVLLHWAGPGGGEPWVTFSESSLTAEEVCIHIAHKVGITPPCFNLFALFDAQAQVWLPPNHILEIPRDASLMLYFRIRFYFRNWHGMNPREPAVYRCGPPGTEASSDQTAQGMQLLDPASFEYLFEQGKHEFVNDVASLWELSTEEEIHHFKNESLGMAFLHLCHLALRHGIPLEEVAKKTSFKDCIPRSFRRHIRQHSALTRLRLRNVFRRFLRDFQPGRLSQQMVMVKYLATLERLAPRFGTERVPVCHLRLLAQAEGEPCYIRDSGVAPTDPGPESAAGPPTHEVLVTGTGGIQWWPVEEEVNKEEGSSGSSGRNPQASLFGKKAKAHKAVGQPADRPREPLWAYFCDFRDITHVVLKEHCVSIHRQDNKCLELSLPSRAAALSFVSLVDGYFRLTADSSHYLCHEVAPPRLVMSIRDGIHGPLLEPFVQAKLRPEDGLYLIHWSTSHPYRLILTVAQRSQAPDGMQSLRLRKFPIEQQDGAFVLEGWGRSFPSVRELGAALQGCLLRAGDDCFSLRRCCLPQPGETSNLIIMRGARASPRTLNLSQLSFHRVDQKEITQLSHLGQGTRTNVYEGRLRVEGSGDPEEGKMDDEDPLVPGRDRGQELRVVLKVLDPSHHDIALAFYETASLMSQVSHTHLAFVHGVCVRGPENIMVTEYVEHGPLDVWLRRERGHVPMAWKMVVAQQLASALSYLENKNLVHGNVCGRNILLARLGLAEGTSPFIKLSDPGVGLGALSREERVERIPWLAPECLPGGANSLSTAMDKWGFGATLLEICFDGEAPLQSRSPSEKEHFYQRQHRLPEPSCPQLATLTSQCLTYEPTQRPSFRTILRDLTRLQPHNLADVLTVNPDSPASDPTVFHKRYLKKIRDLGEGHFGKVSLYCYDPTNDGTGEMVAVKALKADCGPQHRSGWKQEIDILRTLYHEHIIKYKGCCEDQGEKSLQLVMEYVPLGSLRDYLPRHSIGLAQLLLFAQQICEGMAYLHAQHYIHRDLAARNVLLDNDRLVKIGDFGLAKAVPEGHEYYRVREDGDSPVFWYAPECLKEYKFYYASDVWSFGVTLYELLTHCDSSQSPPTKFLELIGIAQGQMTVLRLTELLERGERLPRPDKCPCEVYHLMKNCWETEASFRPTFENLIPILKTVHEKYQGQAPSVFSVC
Sequence of Ephrin type-A receptor 4 (Homo sapiens) (P54764 whole entry, the tested form may be a part): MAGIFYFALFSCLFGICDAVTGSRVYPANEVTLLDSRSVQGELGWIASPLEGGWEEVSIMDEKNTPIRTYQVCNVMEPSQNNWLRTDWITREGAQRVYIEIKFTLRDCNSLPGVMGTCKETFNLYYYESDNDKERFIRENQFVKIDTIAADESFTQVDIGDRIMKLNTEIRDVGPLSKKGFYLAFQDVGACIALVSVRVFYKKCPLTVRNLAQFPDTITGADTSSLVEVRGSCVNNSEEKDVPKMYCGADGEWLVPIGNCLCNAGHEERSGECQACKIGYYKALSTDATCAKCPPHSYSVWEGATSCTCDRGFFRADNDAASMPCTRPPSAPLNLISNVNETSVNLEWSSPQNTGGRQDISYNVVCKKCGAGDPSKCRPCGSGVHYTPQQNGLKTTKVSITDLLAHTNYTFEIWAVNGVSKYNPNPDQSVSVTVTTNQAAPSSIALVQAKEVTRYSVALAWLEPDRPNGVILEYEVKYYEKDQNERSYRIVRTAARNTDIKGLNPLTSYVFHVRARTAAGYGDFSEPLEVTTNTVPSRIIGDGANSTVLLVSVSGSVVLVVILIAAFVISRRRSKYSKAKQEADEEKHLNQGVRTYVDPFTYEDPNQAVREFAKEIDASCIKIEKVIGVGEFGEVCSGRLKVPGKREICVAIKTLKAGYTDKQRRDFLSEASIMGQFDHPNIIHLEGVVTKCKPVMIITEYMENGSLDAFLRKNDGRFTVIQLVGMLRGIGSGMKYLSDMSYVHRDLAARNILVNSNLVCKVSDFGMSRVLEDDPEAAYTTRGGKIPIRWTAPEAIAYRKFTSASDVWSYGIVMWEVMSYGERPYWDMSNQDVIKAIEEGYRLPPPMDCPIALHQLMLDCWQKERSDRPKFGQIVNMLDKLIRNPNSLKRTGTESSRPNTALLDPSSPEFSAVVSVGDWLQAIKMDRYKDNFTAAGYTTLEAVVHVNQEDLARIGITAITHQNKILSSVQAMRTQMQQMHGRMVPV
Sequence of Dual specificity mitogen-activated protein kinase kinase 5 (Homo sapiens) (Q13163 whole entry, the tested form may be a part): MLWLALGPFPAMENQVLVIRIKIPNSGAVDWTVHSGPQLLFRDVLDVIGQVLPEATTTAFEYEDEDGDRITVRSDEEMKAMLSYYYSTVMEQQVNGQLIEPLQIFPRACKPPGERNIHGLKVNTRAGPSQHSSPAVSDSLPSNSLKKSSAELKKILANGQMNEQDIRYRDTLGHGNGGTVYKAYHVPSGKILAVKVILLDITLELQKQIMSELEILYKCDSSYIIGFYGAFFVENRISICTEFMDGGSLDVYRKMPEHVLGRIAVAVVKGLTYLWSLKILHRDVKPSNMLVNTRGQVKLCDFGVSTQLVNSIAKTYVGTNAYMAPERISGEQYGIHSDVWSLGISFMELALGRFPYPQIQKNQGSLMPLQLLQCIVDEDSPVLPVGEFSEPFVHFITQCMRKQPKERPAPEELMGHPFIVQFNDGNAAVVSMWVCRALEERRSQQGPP
Sequence of Interleukin-1 receptor-associated kinase 1 (Homo sapiens) (P51617 whole entry, looked up, the tested form may be a part): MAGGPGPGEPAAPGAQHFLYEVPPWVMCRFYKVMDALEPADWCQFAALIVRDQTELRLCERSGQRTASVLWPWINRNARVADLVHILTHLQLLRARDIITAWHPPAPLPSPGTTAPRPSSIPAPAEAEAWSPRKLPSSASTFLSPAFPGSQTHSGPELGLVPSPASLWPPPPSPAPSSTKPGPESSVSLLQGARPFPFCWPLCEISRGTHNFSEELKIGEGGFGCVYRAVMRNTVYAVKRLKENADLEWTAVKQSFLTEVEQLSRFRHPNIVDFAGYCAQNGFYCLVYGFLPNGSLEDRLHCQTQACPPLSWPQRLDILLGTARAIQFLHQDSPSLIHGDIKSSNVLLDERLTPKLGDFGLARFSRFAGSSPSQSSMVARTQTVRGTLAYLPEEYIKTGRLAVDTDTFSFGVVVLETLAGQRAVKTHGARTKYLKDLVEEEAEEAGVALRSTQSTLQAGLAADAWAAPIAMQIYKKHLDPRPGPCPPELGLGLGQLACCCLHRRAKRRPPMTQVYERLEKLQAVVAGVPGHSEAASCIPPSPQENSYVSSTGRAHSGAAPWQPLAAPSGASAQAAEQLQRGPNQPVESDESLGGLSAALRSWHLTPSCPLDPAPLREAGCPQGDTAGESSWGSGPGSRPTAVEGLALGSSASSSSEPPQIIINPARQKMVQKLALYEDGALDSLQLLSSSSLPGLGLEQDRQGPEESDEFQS

CC1(C)[C@H](Nc2c(C(N)=O)cnn3cc(-c4ccccc4)cc23)CC[C@]1(C)N
Activity [1]: 100%
Activity [2]: 100%
Activity [3]: 72%
Activity [4]: 100%
Activity [5]: 83%
Activity [6]: 100%
Activity [7]: 96%
Activity [8]: 100%
Activity [9]: 90%
Activity [10]: 89%
Activity [11]: 56%
Activity [12]: 64%
Activity [13]: 3.6%
Activity [14]: 50%
Activity [15]: 100%
Activity [16]: 100%
Activity [17]: 100%
Activity [18]: 100%
IC50 [19]: 9 nM
Activity [20]: 100%
Activity [21]: 96%
Activity [22]: 100%
Activity [23]: 5%
Activity [24]: 94%
Activity [25]: 99%
Activity [26]: 87%

COc1ccc(-c2cc3c(N[C@@H]4CC[C@](C)(N)C4(C)C)c(C(N)=O)cnn3c2)cn1
Activity [1]: 86%
Activity [2]: 100%
Activity [3]: 81%
Activity [4]: 100%
Activity [5]: 64%
Activity [6]: 100%
Activity [7]: 96%
Activity [8]: 100%
Activity [9]: 90%
Activity [10]: 100%
Activity [11]: 84%
Activity [12]: 100%
Activity [13]: 18%
Activity [14]: 50%
Activity [15]: 100%
Activity [16]: 100%
Activity [17]: 90%
Activity [18]: 86%
IC50 [19]: 15 nM
Activity [20]: 100%
Activity [21]: 92%
Activity [22]: 100%
Activity [23]: 34%
Activity [24]: 100%
Activity [25]: 100%
Activity [26]: 100%
